# Assay results: patent US20130158075A1, “HETEROCYCLIC COMPOUNDS AS DGAT1 INHIBITORS” (PIRAMAL ENTERPRISES LIMITED, priority 2010, published 2013)
# Structures can show the parent of a compound that is named as a salt.
# Target: T1, hDGAT1 (Homo sapiens, UniProt O75907)
# T1 construct: made in house; host or cells: Sf9 insect cells (baculovirus); microsomal fraction
# T1 sequence (O75907 1-488): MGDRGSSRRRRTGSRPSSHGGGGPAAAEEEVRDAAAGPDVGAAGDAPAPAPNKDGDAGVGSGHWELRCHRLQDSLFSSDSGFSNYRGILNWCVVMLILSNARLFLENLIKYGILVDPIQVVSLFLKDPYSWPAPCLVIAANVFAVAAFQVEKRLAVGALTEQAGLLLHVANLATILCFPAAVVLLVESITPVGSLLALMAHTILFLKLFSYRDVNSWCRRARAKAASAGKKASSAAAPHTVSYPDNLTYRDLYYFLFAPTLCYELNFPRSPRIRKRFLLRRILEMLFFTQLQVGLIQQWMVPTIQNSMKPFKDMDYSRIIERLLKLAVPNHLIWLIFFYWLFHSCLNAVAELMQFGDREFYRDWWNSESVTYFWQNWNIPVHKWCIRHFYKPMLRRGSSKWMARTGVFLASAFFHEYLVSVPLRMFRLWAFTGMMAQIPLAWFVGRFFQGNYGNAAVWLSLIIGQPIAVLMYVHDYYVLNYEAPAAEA
# Assay: In-vitro DGAT1 assay with hDGAT1 microsomes from Sf9 cells (14C oleoyl CoA, scintillation counting)
# Format: biochemical
# Conditions: at 1 μM
# Outline: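 Radiolabelled triglyceride formation was measured: heptane extracts were scintillation-counted after a 10-min, 37 °C reaction stopped with alkaline ethanol. Enzyme was human DGAT1 in baculovirus-infected Sf9 microsomal membranes; substrates were 14C oleoyl-CoA plus dioleoylglycerol. Runs were duplicated, and inhibition (%) was related to nM compound concentration.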
row,Percentage inhibition of hDGAT1,Compound
1,++ (>50 % Inhibition),O=C(Nc1ccc(-c2cnc(CCNS(=O)(=O)C(F)(F)F)s2)cc1)Nc1ccc(C(F)(F)F)cc1 [Example 526]
2,++ (>50 % Inhibition),"O=C(Nc1ccc(-c2cnc(CCNS(=O)(=O)C(F)(F)F)s2)cc1)NC1CCCCC1 [Example 528, N-(2-(5-(4-(3-Cyclohexylureido)phenyl)thiazol-2-yl)ethyl)-1,1,1-trifluoro methanesulfonamide]"
3,++ (>50 % Inhibition),"O=C(Nc1ccc(-c2cnc(CNS(=O)(=O)C(F)(F)F)s2)cc1)Nc1ccccc1Cl [Example 543, N-((5-(4-(3-(2-Chlorophenyl)ureido)phenyl)thiazol-2-yl)methyl)-1,1,1-trifluoro methanesulfonamide]"
4,++ (>50 % Inhibition),"O=C(Nc1ccc(-c2cnc(CNS(=O)(=O)C(F)(F)F)s2)cc1)NC1CCCCC1 [Example 548, N-((5-(4-(3-Cyclohexylureido)phenyl)thiazol-2-yl)methyl)-1,1,1-trifluoro methanesulfonamide]"
5,+ (20-50% Inhibition),O=C(Nc1ccc(-c2cnc(CNS(=O)(=O)C(F)(F)F)s2)cc1)c1ccccc1Cl [Example 551]

# Same assay, conditions: read-out: Percentage inhibition of hDGAT1
row,inhibition at 1 µM [%],Compound
1,> 50,"O=C(Nc1ccc(-c2cnc(C34CC5CC(CC(C(=O)O)(C5)C3)C4)s2)cc1)Nc1ccc(F)c(F)c1F [Example 510, 3-(5-(4-(3-(2,3,4-Trifluorophenyl)ureido)phenyl)thiazol-2-yl)adamantane-1-carboxylic acid]"
2,> 50,"O=C(Nc1ccc(-c2cnc(C34CC5CC(CC(C(=O)O)(C5)C3)C4)s2)cc1)Nc1cc(F)cc(F)c1 [Example 512, 3-(5-(4-(3-(3,5-Difluorophenyl)ureido)phenyl)thiazol-2-yl)adamantane-1-carboxylic acid]"
3,> 50,"O=C(Nc1ccc(-c2cnc(C34CC5CC(CC(C(=O)O)(C5)C3)C4)s2)cc1)Nc1cccc(C(F)(F)F)c1 [Example 514, 3-(5-(4-(3-(3-(Trifluoromethyl)phenyl)ureido)phenyl)thiazol-2-yl)adamantane-1-carboxylic acid]"
4,> 50,"O=C(Nc1ccccc1)Nc1ccc(-c2cnc(CCNS(=O)(=O)C(F)(F)F)s2)cc1 [Example 527, 1,1,1-Trifluoro-N-(2-(5-(4-(3-phenylureido)phenyl)thiazol-2-yl)ethyl)methane sulfonamide]"
5,20 to 50,"O=C(Nc1ccc(-c2cnc(CCNS(=O)(=O)C(F)(F)F)s2)cc1)c1ccccc1Cl [Example 529, 2-Chloro-N-(4-(2-(2-(trifluoromethylsulfonamido)ethyl)thiazol-5-yl)phenyl)benzamide]"
6,> 50,"O=C(Nc1ccc(-c2cnc(CCNS(=O)(=O)C(F)(F)F)s2)cc1)c1nc(-c2ccccc2)oc1C(F)(F)F [Example 533, 2-Phenyl-5-(trifluoromethyl)-N-(4-(2-(2-(trifluoromethylsulfonamido)ethyl)thiazol-5-yl)phenyl)oxazole-4-carboxamide]"
7,> 50,"N#CN=C(Nc1ccc(-c2cnc(CCNS(=O)(=O)C(F)(F)F)s2)cc1)Nc1ccccc1F [Example 537, N-(2-(5-(4-(2-Cyano-3-(2-fluorophenyl)guanidino)phenyl)thiazol-2-yl)ethyl)-1,1,1-trifluoromethanesulfonamide]"
8,> 50,"O=C(Nc1ccc(-c2cnc(CNS(=O)(=O)C(F)(F)F)s2)cc1)Nc1ccccc1F [Example 544, 1,1,1-Trifluoro-N-((5-(4-(3-(2-fluorophenyl)ureido)phenyl)thiazol-2-yl)methyl)methanesulfonamide]"
9,> 50,"O=C(Nc1ccc(-c2cnc(CNS(=O)(=O)C(F)(F)F)s2)cc1)Nc1cc(F)cc(F)c1 [Example 545, N-((5-(4-(3-(3,5-Difluorophenyl)ureido)phenyl)thiazol-2-yl)methyl)-1,1,1-trifluoromethanesulfonamide]"
10,> 50,"O=C(Nc1ccc(-c2cnc(CNS(=O)(=O)C(F)(F)F)s2)cc1)Nc1cc(F)c(F)cc1F [Example 546, 1,1,1-Trifluoro-N-((5-(4-(3-(2,4,5-trifluorophenyl)ureido)phenyl)thiazol-2-yl)methyl)methanesulfonamide]"
11,> 50,"O=C(Nc1ccc(-c2cnc(CNS(=O)(=O)C(F)(F)F)s2)cc1)Nc1c(F)cc(F)cc1F [Example 547, 1,1,1-Trifluoro-N-((5-(4-(3-(2,4,6-trifluorophenyl)ureido)phenyl)thiazol-2-yl)methyl)methanesulfonamide]"
12,> 50,"O=C(Nc1ccc(-c2cnc(CNS(=O)(=O)C(F)(F)F)s2)cc1)Nc1ccc(C(F)(F)F)cc1 [Example 549, 1,1,1-Trifluoro-N-((5-(4-(3-(4-(trifluoromethyl)phenyl)ureido)phenyl)thiazol-2-yl)methyl)methanesulfonamide]"
13,> 50,"O=C(Nc1ccccc1)Nc1ccc(-c2cnc(CNS(=O)(=O)C(F)(F)F)s2)cc1 [Example 550, 1,1,1-Trifluoro-N-((5-(4-(3-phenylureido)phenyl)thiazol-2-yl)methyl)methane sulfonamide]"
14,> 50,"O=C(Nc1ccc(-c2cnc(CNS(=O)(=O)C(F)(F)F)s2)cc1)c1ccc(C(F)(F)F)cc1 [Example 552, 4-(Trifluoromethyl)-N-(4-(2-((trifluoromethylsulfonamido)methyl)thiazol-5-yl)phenyl)benzamide]"
15,20 to 50,"O=S(=O)(Nc1ccc(-c2cnc(CNS(=O)(=O)C(F)(F)F)s2)cc1)c1ccccc1 [Example 553, N-(4-(2-((Trifluoromethylsulfonamido)methyl)thiazol-5-yl)phenyl)benzene sulfonamide]"
16,> 50,"CC(C)(NS(=O)(=O)C(F)(F)F)c1ncc(-c2ccc(NC(=O)Nc3ccccc3Cl)cc2)s1 [Example 562, N-(2-(5-(4-(3-(2-Chlorophenyl)ureido)phenyl)thiazol-2-yl)propan-2-yl)-1,1,1-trifluoromethanesulfonamide]"
17,> 50,"CC(C)(NS(=O)(=O)C(F)(F)F)c1ncc(-c2ccc(NC(=O)Nc3ccccc3F)cc2)s1 [Example 563, 1,1,1-Trifluoro-N-(2-(5-(4-(3-(2-fluorophenyl)ureido)phenyl)thiazol-2-yl)propan-2-yl)methanesulfonamide]"
18,> 50,"CC(C)(NS(=O)(=O)C(F)(F)F)c1ncc(-c2ccc(NC(=O)Nc3cc(F)cc(F)c3)cc2)s1 [Example 564, N-(2-(5-(4-(3-(3,5-Difluorophenyl)ureido)phenyl)thiazol-2-yl)propan-2-yl)-1,1,1-trifluoromethanesulfonamide]"
19,> 50,"CC(C)(NS(=O)(=O)C(F)(F)F)c1ncc(-c2ccc(NC(=O)Nc3cc(F)c(F)cc3F)cc2)s1 [Example 565, 1,1,1-Trifluoro-N-(2-(5-(4-(3-(2,4,5-trifluorophenyl)ureido)phenyl)thiazol-2-yl)propan-2-yl)methanesulfonamide]"
20,20 to 50,"CC(C)(NS(=O)(=O)C(F)(F)F)c1ncc(-c2ccc(NC(=O)Nc3c(F)cc(F)cc3F)cc2)s1 [Example 566, 1,1,1-Trifluoro-N-(2-(5-(4-(3-(2,4,6-trifluorophenyl)ureido)phenyl)thiazol-2-yl)propan-2-yl)methanesulfonamide]"
21,> 50,"CC(C)(NS(=O)(=O)C(F)(F)F)c1ncc(-c2ccc(NC(=O)NC3CCCCC3)cc2)s1 [Example 567, N-(2-(5-(4-(3-Cyclohexylureido)phenyl)thiazol-2-yl)propan-2-yl)-1,1,1-trifluoromethanesulfonamide]"
22,20 to 50,"CC(C)(NS(=O)(=O)C(F)(F)F)c1ncc(-c2ccc(NS(=O)(=O)c3ccccc3)cc2)s1 [Example 568, N-(4-(2-(2-(Trifluoromethylsulfonamido)propan-2-yl)thiazol-5-yl)phenyl)benzenesulfonamide]"
23,20 to 50,"NCCc1ncc(-c2ccc(NC(=O)Nc3cc(F)cc(F)c3)cc2)s1 [Example 574, 1-(4-(2-(2-Aminoethyl)thiazol-5-yl)phenyl)-3-(3,5-difluorophenyl)urea hydrochloride]"
24,20 to 50,"NCCc1ncc(-c2ccc(NC(=O)Nc3cc(F)c(F)cc3F)cc2)s1 [Example 575, 1-(4-(2-(2-Aminoethyl)thiazol-5-yl)phenyl)-3-(2,4,5-trifluorophenyl)urea hydrochloride]"
25,> 50,"CC(C)(CCc1ncc(-c2ccc(NC(=O)Nc3ccccc3Cl)cc2)s1)C(=O)NS(=O)(=O)C(F)(F)F [Example 579, 4-(5-(4-(3-(2-Chlorophenyl)ureido)phenyl)thiazol-2-yl)-2,2-dimethyl-N-((trifluoromethyl)sulfonyl)butanamide]"
26,> 50,"CC(C)(CCc1ncc(-c2ccc(NC(=O)Nc3ccccc3F)cc2)s1)C(=O)NS(=O)(=O)C(F)(F)F [Example 580, 4-(5-(4-(3-(2-Fluorophenyl)ureido)phenyl)thiazol-2-yl)-2,2-dimethyl-N-((trifluoromethyl)sulfonyl)butanamide]"
27,> 50,"CC(C)(CCc1ncc(-c2ccc(NC(=O)Nc3cc(F)cc(F)c3)cc2)s1)C(=O)NS(=O)(=O)C(F)(F)F [Example 581, 4-(5-(4-(3-(3,5-Difluorophenyl)ureido)phenyl)thiazol-2-yl)-2,2-dimethyl-N-((trifluoromethyl)sulfonyl)butanamide]"
